Data set [1] has as its system Myzus persicae. Kind of data set: Insecticidal activity against Myzus persicae (green peach aphid) assessed as insect mortality at 0.78 ppm. It counts as functional.
Data set [2] concerns Plutella xylostella. The data set can be described thus: Insecticidal activity against Plutella xylostella (diamondback moth) assessed as insect mortality at 3.13 ppm. The class given is functional.
Data set [3] deals with Plutella xylostella. The data set can be described thus: Insecticidal activity against Plutella xylostella (diamondback moth) assessed as insect mortality at 50 ppm. It counts as functional.
Data set [4] concerns Plutella xylostella. Kind of data set: Insecticidal activity against Plutella xylostella (diamondback moth) assessed as insect mortality at 0.78 ppm. It counts as functional.
Data set [5] deals with Myzus persicae. The data set can be described thus: Insecticidal activity against Myzus persicae (green peach aphid) assessed as insect mortality at 50 ppm. The class given is functional.
The subject of data set [6] is Myzus persicae. Kind of data set: Insecticidal activity against Myzus persicae (green peach aphid) assessed as insect mortality at 3.13 ppm. The class given is functional.
In data set [7] the test system is Plutella xylostella. The data set can be described thus: Insecticidal activity against Plutella xylostella (diamondback moth) assessed as insect mortality at 12.5 ppm. The class given is functional.
In data set [8] the test system is Myzus persicae. The data set can be described thus: Insecticidal activity against Myzus persicae (green peach aphid) assessed as insect mortality at 12.5 ppm. The class given is functional.
A short description of data set [9]: Acute toxicity in Mus musculus (mouse). The settings on record: in vivo. The class given is organism-based.

Structures are written as SMILES. A value given as a limit tells only on which side of the number the result lay.

Broadly, the mortality is the percentage killed. The term LD50 denotes the dose at which mortality reaches 50%. A high value points to lower toxicity.

Consider `CCc1nn(C)c(C(=O)NCc2ccc(C(=O)c3ccc(C)cc3)cc2)c1Cl`, for which the mortality at 0.78 ppm was determined as 30% in data set [1] and 0% in [4]. Also, the mortality at 3.13 ppm in data set [2] and in data set [6] was 0% each time. Moreover, the mortality at 50 ppm in data set [3] and in [5] was 100% throughout. Also, the mortality at 12.5 ppm in data set [7] and in data set [8] was 100% in each case.

Consider `Cc1ccc(Oc2ccc(CNC(=O)c3c(Cl)c(C)nn3C)cc2)cc1`, for which the mortality at 0.78 ppm in [1] was 0%. Besides, the mortality at 50 ppm in data set [5] turned out to be 100%. Besides, the mortality at 3.13 ppm in data set [6] came out at 0%. Besides, in [8], the mortality at 12.5 ppm was determined as 100%.

For the compound `CCc1nn(C)c(C(=O)NCc2cccc(Oc3ccc(C)cc3)c2)c1Cl`, the mortality at 0.78 ppm in data set [1] is 0%. In [5], the mortality at 50 ppm turned out to be 80%. Also, the mortality at 3.13 ppm in data set [6] amounted to 30%. Moreover, in [8], the mortality at 12.5 ppm was 80%.

As to `Cc1ccc(Oc2ccc(CNC(=O)c3c4ccccc4nn3C)cc2)cc1`, the mortality at 0.78 ppm in data set [1] is 0%. Besides, in data set [5], the mortality at 50 ppm was determined as 0%. Moreover, in [6], the mortality at 3.13 ppm was 0%. For the same compound, the mortality at 12.5 ppm in data set [8] came to 0%.

On to `CCc1nn(C)c(C(=O)NCc2ccccc2Oc2cccc(C)c2)c1Cl`, for which the mortality at 0.78 ppm in data set [1] stood at 0%. Moreover, the mortality at 50 ppm in [5] came to 0%. Further, the mortality at 3.13 ppm in data set [6] amounted to 0%. In addition, the mortality at 12.5 ppm in data set [8] came out at 0%.

Regarding `CCCc1nn(C)c(C(=O)NCc2ccc(Oc3ccc(C)cc3)cc2)c1Cl`, the mortality at 0.78 ppm in [1] was 0%. Further, the mortality at 50 ppm in data set [5] stood at 80%. For the same compound, the mortality at 3.13 ppm in [6] was 0%. Also, in data set [8], the mortality at 12.5 ppm is 0%.

Compound `CC1CCc2c1nn(C)c2C(=O)NCc1ccc(Oc2ccc(C(F)(F)F)cc2)cc1` (configuration not stated) gave an LD50 in data set [9] below 30 mg/kg.

As to `CCC1CCc2c1nn(C)c2C(=O)NCc1ccc(Oc2ccc(C)cc2)cc1` (configuration not stated), in data set [1], the mortality at 0.78 ppm was 0%. The mortality at 50 ppm in data set [5] came to 80%. For the same compound, the mortality at 3.13 ppm in data set [6] was 0%. For the same compound, the mortality at 12.5 ppm in [8] amounted to 30%.

Consider `CCc1nn(C)c(C(=O)NCc2ccc(Oc3ccc(C)cc3)cc2)c1OC`, for which, in data set [1], the mortality at 0.78 ppm came out at 0%. For the same compound, the mortality at 50 ppm in data set [5] is 100%. In addition, in data set [6], the mortality at 3.13 ppm amounted to 100%. Besides, the mortality at 12.5 ppm in data set [8] came to 100%.

Regarding `CCc1nn(C)c(C(=O)NCc2ccc(Oc3ccc(C)cc3)cc2)c1Br`, in data set [1], the mortality at 0.78 ppm is 0%. Moreover, the mortality at 50 ppm in [5] was determined as 80%. Also, in data set [6], the mortality at 3.13 ppm amounted to 0%. Moreover, the mortality at 12.5 ppm in data set [8] worked out at 30%.

Regarding `CCc1nn(C)c(C(=O)NCc2ccc(Oc3ccccc3C)cc2)c1Cl`, in data set [1], the mortality at 0.78 ppm was 0%. Besides, the mortality at 50 ppm in data set [5] was 100%. For the same compound, in [6], the mortality at 3.13 ppm turned out to be 0%. The mortality at 12.5 ppm in data set [8] was determined as 100%.

For the compound `CCc1cc(C(=O)NCc2ccc(Oc3ccc(C)cc3)cc2)n(C)n1`, in [1], the mortality at 0.78 ppm stood at 0%. The mortality at 50 ppm in [5] was 30%. Further, the mortality at 3.13 ppm in [6] came to 0%. For the same compound, in data set [8], the mortality at 12.5 ppm is 0%.

Regarding `Cc1ccc(Oc2ccc(CNC(=O)c3c(Cl)c(C(F)(F)F)nn3C)cc2)cc1`, in [1], the mortality at 0.78 ppm is 0%. For the same compound, the mortality at 50 ppm in [5] worked out at 0%. For the same compound, the mortality at 3.13 ppm in data set [6] turned out to be 0%. Besides, the mortality at 12.5 ppm in data set [8] was 0%.

Regarding `CCc1nn(C)c(C(=O)NCc2ccc(COc3ccc(C)cc3)cc2)c1Cl`, the mortality at 0.78 ppm in data set [1] and in data set [4] was 0% each time. Further, the mortality at 3.13 ppm in [2] and in [6] was 0% in each case. Also, the mortality at 50 ppm in [3] and in data set [5] was 0% each time. The mortality at 12.5 ppm in data set [7] and in data set [8] was 0% in each case.

Take `CCc1nn(C)c(C(=O)NCc2ccccc2Oc2ccccc2C)c1Cl`: in [1], the mortality at 0.78 ppm came out at 0%. The mortality at 50 ppm in data set [5] was found to be 0%. Also, in data set [6], the mortality at 3.13 ppm turned out to be 0%. Also, in data set [8], the mortality at 12.5 ppm is 0%.

As for `Cc1ccc(Oc2ccc(CNC(=O)c3c(Cl)c(C(C)(C)C)nn3C)cc2)cc1`, in data set [1], the mortality at 0.78 ppm was found to be 0%. In addition, in data set [5], the mortality at 50 ppm was determined as 30%. Also, in [6], the mortality at 3.13 ppm is 0%. Moreover, in data set [8], the mortality at 12.5 ppm was 0%.

With `CCc1nn(C)c(C(=O)NCc2ccc(Cc3ccc(C)cc3)cc2)c1Cl`, the mortality at 0.78 ppm in data set [1] and in data set [4] was 0% in each case. Besides, the mortality at 3.13 ppm in [2] and in data set [6] was 0% throughout. Besides, the mortality at 50 ppm came out at 80% in data set [3] and 0% in data set [5]. Besides, the mortality at 12.5 ppm in data set [7] and in [8] was 0% each time.

For `CCc1nn(C)c(C(=O)NCc2ccc(Oc3ccc(C)cc3)cc2)c1Cl` [TOLFENPYRAD], the mortality at 0.78 ppm in [1] turned out to be 30%; in data set [4], 0%. The mortality at 3.13 ppm in data set [2] is 30%; in data set [6], 100%. Moreover, the mortality at 50 ppm in data set [3] and in [5] was 100% each time. Also, the mortality at 12.5 ppm in [7] and in [8] was 100% throughout. Also, in data set [9], the LD50 is above 100 mg/kg.

On to `CCc1nn(C)c(C(=O)NCc2ccc(Oc3cccc(C)c3)cc2)c1Cl`, for which the mortality at 0.78 ppm in data set [1] worked out at 0%. In [5], the mortality at 50 ppm came out at 100%. Also, the mortality at 3.13 ppm in [6] is 80%. The mortality at 12.5 ppm in [8] stood at 100%.

As to `Cc1ccc(Oc2ccc(CNC(=O)c3c(Cl)c(C(C)C)nn3C)cc2)cc1`, the mortality at 0.78 ppm in [1] is 0%. In addition, the mortality at 50 ppm in [5] worked out at 100%. Besides, the mortality at 3.13 ppm in data set [6] was determined as 0%. For the same compound, in [8], the mortality at 12.5 ppm is 30%.

Turning to `CCc1nn(C)c(C(=O)NCc2ccccc2Oc2ccc(C)cc2)c1Cl`, the mortality at 0.78 ppm in [1] amounted to 0%. Also, in data set [5], the mortality at 50 ppm worked out at 0%. In addition, in data set [6], the mortality at 3.13 ppm came to 0%. Further, the mortality at 12.5 ppm in data set [8] was determined as 0%.

In the case of `CCc1nn(C)c(C(=O)NCc2cccc(Oc3ccccc3C)c2)c1Cl`, the mortality at 0.78 ppm in data set [1] is 0%. Besides, the mortality at 50 ppm in data set [5] turned out to be 30%. Besides, in data set [6], the mortality at 3.13 ppm turned out to be 0%. Further, the mortality at 12.5 ppm in data set [8] worked out at 30%.

For `Cc1ccc(Oc2ccc(CNC(=O)c3c4c(nn3C)C(C)CC4)cc2)cc1` (configuration not stated), the mortality at 0.78 ppm in data set [1] amounted to 0%. The mortality at 50 ppm in [5] turned out to be 100%. Also, the mortality at 3.13 ppm in [6] was determined as 0%. For the same compound, the mortality at 12.5 ppm in data set [8] was 80%.

Take `Cc1ccc(Oc2ccc(CNC(=O)c3c4c(nn3C)CCC4)cc2)cc1`: the mortality at 0.78 ppm in data set [1] turned out to be 0%. In data set [5], the mortality at 50 ppm amounted to 100%. In data set [6], the mortality at 3.13 ppm is 0%. For the same compound, in data set [8], the mortality at 12.5 ppm worked out at 30%.

On to `CCc1nn(C)c(C(=O)NCc2cccc(Oc3cccc(C)c3)c2)c1Cl`, for which, in data set [1], the mortality at 0.78 ppm turned out to be 0%. In addition, the mortality at 50 ppm in data set [5] is 80%. Also, the mortality at 3.13 ppm in data set [6] was 0%. In addition, the mortality at 12.5 ppm in [8] stood at 30%.

For `CCc1nn(C)c(C(=O)NCc2ccc(Sc3ccc(C)cc3)cc2)c1Cl`, the mortality at 0.78 ppm in data set [1] came to 30%; in [4], 0%. The mortality at 3.13 ppm in data set [2] and in [6] was 0% throughout. The values for the mortality at 50 ppm in data set [3] and in [5] were 30% and 100%, respectively. In addition, the mortality at 12.5 ppm in [7] was 30%; in data set [8], 100%.

For the origin of these results see ChEMBL document CHEMBL3044832, “Synthesis and Insecticidal Activity of N-(Tolyloxybenzyl)-pyrazolecarboxamide Derivatives” (J Pestic Sci, 1999).
